Reference: article PMC5074515 (PLoS ONE, 2016)
≈ marks a conversion by molar mass, not a printed value. Where a name gives a salt, the structure may show the parent alone. Read-outs that look alike come from different tables or passages of the source.

Columns and labels:
Mtb H37Ra (ATCC 25177) = test: In vitro screen versus Mtb H37Ra (Alamar blue microdilution broth assay, MIC99); assay type: cell-based, M. tuberculosis; settings: Mycobacterium tuberculosis
Description: The initial screening set and selected other compounds were tested for their inhibitory activity against Mtb H37Ra (ATCC 25177) and MAC NJ211 strains. Screening was performed at 1.28 and 12.8 μg/mL in Middlebrook 7H9 broth supplemented with 0.2% glycerol and ADC enrichment using a colorimetric (Alamar blue) microdilution broth assay by reported methods.[15]

MAC NJ211 = test: In vitro screen versus MAC NJ211 (Alamar blue microdilution broth assay, MIC99); assay type: cell-based; settings: read-out: MAC NJ211 MIC99
Mtb FtsZ = Mtb FtsZ (Mycobacterium tuberculosis, UniProt P9WN95); test: biochemical; assay type: biochemical
Mtb FtsZ, sequence (P9WN95 whole entry): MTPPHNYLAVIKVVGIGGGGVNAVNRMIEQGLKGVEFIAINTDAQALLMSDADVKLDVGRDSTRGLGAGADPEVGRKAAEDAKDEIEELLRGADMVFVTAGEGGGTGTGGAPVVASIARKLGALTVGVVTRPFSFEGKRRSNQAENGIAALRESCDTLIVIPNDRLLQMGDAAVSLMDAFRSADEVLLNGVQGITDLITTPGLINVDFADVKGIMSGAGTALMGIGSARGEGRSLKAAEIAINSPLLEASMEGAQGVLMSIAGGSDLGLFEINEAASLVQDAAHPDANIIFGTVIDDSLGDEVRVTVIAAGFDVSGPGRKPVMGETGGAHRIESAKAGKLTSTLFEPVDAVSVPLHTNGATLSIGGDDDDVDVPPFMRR

Mtb H37Rv = test: In vitro qHTS assay against Mtb H37Rv (IC90); assay type: cell-based, M. tuberculosis; settings: for IC90: read-out: Mtb H37Rv IC90; for fold more active against Mtb H37Rv than corresponding analog: 48 vs 23, 57 vs 56, 60 vs 24
[1] = lowest drug concentration that completely inhibited growth
[2] = lowest drug concentration that completely inhibited growth, read-out: Mtb H37Ra MIC99
[3] = mean ± standard deviation, at least three times per assay, NA = not active up to 100 μM, read-out: Mtb FtsZ Polymerization IC50
[4] = Mycobacterium tuberculosis, H37RV, concentration that inhibits bacterial growth by 90%

SMILES	MIC99 (Mtb H37Ra (ATCC 25177); [2]) [µg/mL]	IC90 (Mtb H37Rv; [4]) [µM]	melting point [°C]	also measured
COc1cc2c(c(OC)c1OC)-c1ccc(OC)c(=O)cc1[C@@H](NC(C)=O)CC2 [Compound 1, Colchicine]	–	–	–	MIC99 (Mtb H37Ra (ATCC 25177); read-out: Mtb H37Ra MIC99): > 64 µg/mL; MIC99 (MAC NJ211; [1]): > 64 µg/mL
O=C(O)c1cc(O)c2c(c1)C(=O)c1cccc(O)c1C2=O [Compound 2, Rhein]	32	–	–	IC50 (Mtb FtsZ): 44.6 ± 6.3 µM; MIC99 (Mtb H37Ra (ATCC 25177); same MIC99 given in μM, read-out: Mtb H37Ra MIC99 (concentration in μM in parentheses)): 113 µM; MIC99 (MAC NJ211; [1]): > 128 µg/mL
O=c1c(O)c(-c2ccc(O)c(O)c2)oc2cc(O)cc(O)c12 [Compound 3, Quercetin dihydrate]	> 128	–	–	IC50 (Mtb FtsZ): 21.7 ± 4.8 µM; MIC99 (MAC NJ211): > 128 µg/mL
O=c1c(O)c(-c2cc(O)c(O)c(O)c2)oc2cc(O)cc(O)c12 [Compound 4, Myrcetin]	> 128	–	–	IC50 (Mtb FtsZ): 42.4 ± 6.3 µM; MIC99 (MAC NJ211): > 128 µg/mL
CN(C)[C@@H]1C(O)=C(C(N)=O)C(=O)[C@@]2(O)C(O)=C3C(=O)c4c(O)cccc4[C@@](C)(O)[C@H]3C[C@@H]12 [Compound 5, Tetracycline]	1	–	–	IC50 (Mtb FtsZ): 87.1 ± 10.7 µM
CN(C)c1ccc(O)c2c1C[C@H]1C[C@H]3[C@H](N(C)C)C(O)=C(C(N)=O)C(=O)[C@@]3(O)C(O)=C1C2=O [Compound 6, Minocycline]	≤ 0.5	–	–	IC50 (Mtb FtsZ): 37.3 ± 4.6 µM
COc1cc2c(cc1O)CC[n+]1cc3cc(OC)c(OC)cc3cc1-2 [Compound 9, Pseudojatrorrhizine]	> 64	–	–	IC50 (Mtb FtsZ; [3]): 105 ± 32 µM; MIC99 (MAC NJ211; [1]): 64 µg/mL
CC/C(=C(\c1ccccc1)c1ccc(OCCN(C)C)cc1)c1ccccc1 [Compound 11, Tamoxifen citrate]	–	–	–	MIC99 (MAC NJ211; [1]): 32 µg/mL
COc1cc(/C=C(\C#N)C(N)=O)cc(CSc2nc3ccccc3s2)c1O [Compound 15, AG-825]	–	–	–	IC50 (Mtb FtsZ; [3]): 31.7 ± 1.7 µM
CCN(CC)CCNc1nc(/C=C/c2ccc(Cl)cc2)nc2cc3ccccc3cc12 [Compound 16, Zantrin Z3]	1	–	–	MIC99 (MAC NJ211; [1]): 2 µg/mL (≈ 4.64 µM)
Oc1ccc(Cl)cc1Cc1cc(Cl)cc(Cc2cc(Cl)ccc2O)c1O [Compound 17, Zantrin Z1]	8	–	–	MIC99 (MAC NJ211; [1]): 16 µg/mL (≈ 39.1 µM)
CSc1ccc(/C=C2/C(C)=C(CC(=O)N(C)CCN(C)C)c3cc(F)ccc32)cc1 [Compound 19, (Z)-N-(2-(Dimethylamino)ethyl)-2-(5-fluoro-2-methyl-1-(4-(methylthio)benzylidene)-1H-inden-3-yl)-N-methylacetamide]	16	6.67 ± 0.14	–	IC50 (Mtb FtsZ; [3]): 42.3 ± 6 µM
CNCCN(C)C(=O)CC1=C(C)/C(=C/c2ccc(SC)cc2)c2ccc(F)cc21 [Compound 23, (Z)-2-(5-Fluoro-2-methyl-1-(4-(methylthio)benzylidene)-1H-inden-3-yl)-N-methyl-N-(2-(methylamino)ethyl)acetamide]	8	8.28 ± 0.33	–	IC50 (Mtb FtsZ; [3]): 34.9 ± 7 µM
CSc1ccc(/C=C2/C(C)=C(CC(=O)NCCN3CCCC3)c3cc(F)ccc32)cc1 [Compound 26, (Z)-2-(5-Fluoro-2-methyl-1-(4-(methylthio)benzylidene)-1H-inden-3-yl)-N-(2-(pyrrolidin-1-yl)ethyl)acetamide]	8	3.04 ± 0.04	106 to 108	IC50 (Mtb FtsZ; [3]): 33.5 ± 5.9 µM
CSc1ccc(/C=C2/C(C)=C(CC(=O)NCc3ccc(N(C)C)cc3)c3cc(F)ccc32)cc1 [Compound 35, (Z)-N-(4-(Dimethylamino)benzyl)-2-(5-fluoro-2-methyl-1-(4-(methylthio)benzylidene)-1H-inden-3-yl)acetamide]	64	> 100	174 to 177	IC50 (Mtb FtsZ; [3]): 22.9 ± 4.8 µM; inhibition at 50 µM (Mtb H37Rv; Mycobacterium tuberculosis, H37RV, at 50 μM): 82%; Mtb H37Rv IC90 (Mtb H37Rv; concentration that inhibits bacterial growth by 90%): inactive
CC1=C(CC(=O)NCCN(C)C)c2cc(F)ccc2/C1=C\c1nc2ccccc2s1 [Compound 38, (Z)-2-(1-(Benzo[d]thiazol-2-ylmethylene)-5-fluoro-2-methyl-1H-inden-3-yl)-N-(2-(dimethylamino)ethyl)acetamide]	–	4.75 ± 0.05	132 to 135	–

SMILES	MIC99 (Mtb H37Ra (ATCC 25177); [2]) [µg/mL]	IC90 (Mtb H37Rv; [4]) [µM]	melting point [°C]	also measured
CC1=C(CC(=O)N(C)CCN(C)C)c2cc(F)ccc2/C1=C\c1nc2ccccc2s1 [Compound 39, (Z)-2-(1-(Benzo[d]thiazol-2-ylmethylene)-5-fluoro-2-methyl-1H-inden-3-yl)-N-(2-(dimethylamino)ethyl)-N-methylacetamide]	–	9.97 ± 0.33	103 to 106	–
CCN(CC)CCNC(=O)CC1=C(C)/C(=C/c2nc3ccccc3s2)c2ccc(F)cc21 [Compound 40, (Z)-2-(1-(Benzo[d]thiazol-2-ylmethylene)-5-fluoro-2-methyl-1H-inden-3-yl)-N-(2-(diethylamino)ethyl)acetamide]	–	3.47 ± 0.04	127 to 130	–
CCN1CCC[C@H]1CNC(=O)CC1=C(C)/C(=C/c2nc3ccccc3s2)c2ccc(F)cc21 [Compound 42, (S,Z)-2-(1-(Benzo[d]thiazol-2-ylmethylene)-5-fluoro-2-methyl-1H-inden-3-yl)-N-((1-ethylpyrrolidin-2-yl)methyl)acetamide]	–	5.46 ± 0.12	168 to 171	–
CC1=C(CC(=O)N2CCC[C@H]2CN2CCCC2)c2cc(F)ccc2/C1=C\c1nc2ccccc2s1 [Compound 43, (S,Z)-2-(1-(Benzo[d]thiazol-2-ylmethylene)-5-fluoro-2-methyl-1H-inden-3-yl)-1-(2-(pyrrolidin-1-ylmethyl)pyrrolidin-1-yl)ethanone]	–	3.68 ± 0.11	79 to 81	–
CCN(CC)CCNC(=O)C(C)C1=C(C)/C(=C/c2ccc(SC)cc2)c2ccc(F)cc21 (stereo not drawn) [Compound 46, (Z)-N-(2-(Diethylamino)ethyl)-2-(5-fluoro-2-methyl-1-(4-(methylthio)benzylidene)-1H-inden-3-yl)propanamide]	–	4.19 ± 0.2	75 to 77	–
CCCCN(CCCC)CCCNC(=O)C(C)C1=C(C)/C(=C/c2ccc(SC)cc2)c2ccc(F)cc21 (stereo not drawn) [Compound 47, (Z)-N-(3-(Dibutylamino)propyl)-2-(5-fluoro-2-methyl-1-(4-(methylthio)benzylidene)-1H-inden-3-yl)propanamide]	–	1.22 ± 0.04	121 to 124	–
CSc1ccc(/C=C2/C(C)=C(C(C)C(=O)NCCCN3CCCCC3C)c3cc(F)ccc32)cc1 (stereo not drawn) [Compound 50, (Z)-2-(5-Fluoro-2-methyl-1-(4-(methylthio)benzylidene)-1H-inden-3-yl)-N-(3-(2-methylpiperidin-1-yl)propyl)propanamide]	–	1.64 ± 0.07	87 to 89	–
CSc1ccc(/C=C2/C(C)=C(C(C)C(=O)N3CCC[C@H]3CN3CCCC3)c3cc(F)ccc32)cc1 (stereo partly drawn) [Compound 52, 2-((Z)-5-Fluoro-2-methyl-1-(4-(methylthio)benzylidene)-1H-inden-3-yl)-1-((S)-2-(pyrrolidin-1-ylmethyl)pyrrolidin-1-yl)propan-1-one]	–	2.55 ± 0.03	80 to 82	–
CSc1ccc(/C=C2/C(C)=C(C(C)C(=O)N3CCC(N4CCCCC4)CC3)c3cc(F)ccc32)cc1 (stereo not drawn) [Compound 53, (Z)-1-([1,4'-Bipiperidin]-1'-yl)-2-(5-fluoro-2-methyl-1-(4-(methylthio)benzylidene)-1H-inden-3-yl)propan-1-one]	–	2.84 ± 0.06	80 to 82	–
CSc1ccc(/C=C2/C(C)=C(C(C)C(=O)N3CCN(CCCN(C)C)CC3)c3cc(F)ccc32)cc1 (stereo not drawn) [Compound 54, (Z)-1-(4-(3-(Dimethylamino)propyl)piperazin-1-yl)-2-(5-fluoro-2-methyl-1-(4-(methylthio)benzylidene)-1H-inden-3-yl)propan-1-one]	–	3.72 ± 0.06	78 to 80	–
CSc1ccc(/C=C2/C(C)=C(CC(=O)N(C)CCN(C)C(=O)C(N)C(C)C)c3cc(F)ccc32)cc1 (stereo not drawn) [Compound 56, (Z)-2-Amino-N-(2-(2-(5-fluoro-2-methyl-1-(4-(methylthio)benzylidene)-1H-inden-3-yl)-N-methylacetamido)ethyl)-N,3-dimethylbutanamide]	8	4.34 ± 0.06	–	IC50 (Mtb FtsZ; [3]): 38 ± 6.3 µM
CSc1ccc(/C=C2/C(C)=C(C(C)C(=O)N(C)CCN(C)C(=O)[C@@H](N)C(C)C)c3cc(F)ccc32)cc1 (stereo partly drawn) [Compound 57, (2S)-2-Amino-N-(2-(2-((Z)-5-fluoro-2-methyl-1-(4-(methylthio)benzylidene)-1H-inden-3-yl)-N-methylpropanamido)ethyl)-N,3-dimethylbutanamide]	–	0.74	60 to 62	fold more active against Mtb H37Rv than corresponding analog (Mtb H37Rv): 6 fold
CSc1ccc(/C=C2/C(C)=C(CCNCc3ccccc3)c3cc(F)ccc32)cc1 [Compound 58]	2	2.07 ± 0.01	–	MIC99 (MAC NJ211; [1]): 4 µg/mL (≈ 9.63 µM)
CSc1ccc(/C=C2/C(C)=C(CCNCc3ccco3)c3cc(F)ccc32)cc1 [Compound 59, (Z)-2-(5-Fluoro-2-methyl-1-(4-(methylthio)benzylidene)-1H-inden-3-yl)-N-(furan-2-ylmethyl)ethanamine]	4	1.69 ± 0.06	–	MIC99 (MAC NJ211; [1]): 8 µg/mL (≈ 19.7 µM)
CSc1ccc(/C=C2/C(C)=C(CCNCCN3CCCCC3)c3cc(F)ccc32)cc1 [Compound 60, (Z)-2-(5-Fluoro-2-methyl-1-(4-(methylthio)benzylidene)-1H-inden-3-yl)-N-(2-(piperidin-1-yl)ethyl)ethanamine]	2	–	–	MIC99 (MAC NJ211): 8 µg/mL (≈ 18.3 µM); fold more active against Mtb H37Rv than corresponding analog (Mtb H37Rv): 1.6 fold; IC90 (Mtb H37Rv; Mycobacterium tuberculosis, H37RV): 0.88 ± 0.01 µM
CC[C@@H](CO)NCCN[C@@H](CC)CO [Ethambutol]	2 to 4	–	–	MIC99 (MAC NJ211; [1]): 4 to 8 µg/mL (≈ 19.6 to 39.2 µM)
